This note sets out measurements from PubChem BioAssay AID449750 (Broad Institute, 2010).

The source made the active and inactive calls. No rule for the calls is given here. A value given as a limit tells only on which side of the number the result lay.

The AC50 is the midpoint of the concentration-response curve, whichever way the signal moves.

A short description of the test: non-covalent RecA intein splicing inhibitors, dose response, biochemical, cell-free, fluorescence, secondary screen (AID 449750).
For the compound `Cc1cc[n+](C2=C([O-])c3ccccc3C(=O)/C2=N\S(=O)(=O)c2cccs2)cc1C`, the AC50 was 4.29 µM.

`Cc1nc2ccccc2nc1N/N=C/c1ccc(O)cc1O`: the AC50 was > 38 µM (inactive).

`CC(C)NC(=S)NC(c1ccccc1)(c1ccccc1)c1ccccc1`: the half-maximal activity concentration (AC50) was 27.9 µM.

Take `N#CC1=C(N)Oc2n[nH]c(-c3cccs3)c2C1c1cccnc1` (stereo unspecified): the AC50 is > 38 µM (inactive).

Turning to `CC(=O)n1cc(N(C(=O)CCl)c2ccc(C)cc2)c2ccccc21`, the AC50 was 1.38 µM.

For the compound `CN1CCN(C(c2ccc(Cl)cc2)c2cc(Cl)c3cccnc3c2O)CC1` (stereo unspecified), the AC50 is 24.8 µM.

In the case of `O=C(CCl)c1ccc2c(c1)CCN2C(=O)C1CCCCC1`, the AC50 is > 38 µM (inactive).

For `CCOC(=O)/C(C#N)=C\c1ccc(O)c(OC)c1`, the AC50 was > 38 µM (inactive).

Regarding `COc1ccc(C(=O)Nc2ccc(O)c3ccccc23)cc1OC`, the AC50 was > 38 µM (inactive).

`N#Cc1ncc(Cc2ccccc2)nc1C#N`: the AC50 is > 38 µM (inactive).

With `Cc1sc(NC(=O)CSC2=NCCS2)nc1-c1ccccc1`, the AC50 was 26.1 µM.

`CCOc1ccc(NC(=O)C(c2ccccn2)N(C(=O)CCl)c2ccc(F)cc2)cc1` (stereo unspecified): the AC50 is 36.2 µM.

For the compound `COc1ccc2[nH]c3c(Cl)ncnc3c2c1`, the AC50 is > 38 µM (inactive).

Consider `N#CC1=C(N)Oc2n[nH]c(-c3cccs3)c2C1c1ccccc1C(=O)O` (stereo unspecified), for which the AC50 is 20.9 µM.

Regarding `O=C1C(Cl)=C(N2CCOCC2)C(=O)N1c1ccccc1F`, the AC50 was > 38 µM (inactive).

In the case of `CC1=NN(c2ccc(Cl)c(C(=O)O)c2)C(=O)C1`, the half-maximal activity concentration (AC50) is 3.21 µM.

Regarding `O=C(Cc1cc(=O)[nH][nH]1)N/N=C/c1cccc2ccccc12`, the half-maximal activity concentration (AC50) is 17.4 µM.

With `Cc1ccc2nc(-c3cccs3)oc(=O)c2c1`, the AC50 is > 38 µM (inactive).

For `CCc1ccc(S(=O)(=O)Nc2cc(SCC(=O)O)c(O)c3ccccc23)cc1`, the AC50 was 3.06 µM.

Turning to `COc1ccc(C(=O)/C=C/Sc2nc3ccccc3o2)cc1`, the AC50 was 38.6 µM.

For `CCCNC(=O)c1nnsc1S(=O)c1ccc(Cl)cc1` (stereo unspecified), the AC50 was 32.9 µM.

Consider `Cn1ncnc2c(=O)n(C)c(=O)nc1-2`, for which the AC50 is 0.0837 µM.

As to `CC1=C(C)/C(=N\OC(=O)/C=C/c2ccccc2)C=CC1=O`, the AC50 is > 38 µM (inactive).

On to `Nc1nc(C(=O)N2CCOCC2)nn1C(=O)c1ccc(Cl)cc1`, for which the AC50 is > 38 µM (inactive).

For the compound `CS(=O)(=O)c1nc(-c2ccccc2)cc(C(F)(F)F)n1`, the AC50 was > 38 µM (inactive).

Regarding `COc1ccc2ccc3c(c2c1)N=C[C@]1(O3)N(C)c2ccccc2C1(C)C`, the AC50 was > 38 µM (inactive).

Take `Cc1noc2ncnc(Sc3ccc(Br)cc3)c12`: the AC50 is 13.5 µM.

Take `CCCNC1=C(N(C(C)=O)c2cccc(F)c2)C(=O)c2ccccc2C1=O`: the AC50 was 3.72 µM.

Regarding `N#C/C(=C\c1cccc(O)c1)c1nc2ccccc2o1`, the AC50 was > 38 µM (inactive).

`CN(C)c1ccc2nsnc2c1[N+](=O)[O-]`: the AC50 is > 38 µM (inactive).

`Cc1ccc(C(=O)N/N=C/c2ccc(-c3ccccc3[N+](=O)[O-])o2)cn1`: the AC50 is 9.17 µM.

Consider `Cc1[nH][nH]c(=O)c1C(c1ccc(-c2ccccc2C(=O)O)o1)c1c(C)[nH][nH]c1=O`, for which the AC50 was 3.19 µM.

As to `CC1=C(C)CC2(SC1)C(=O)N(c1ccccc1)N=C2N` (stereo unspecified), the AC50 was > 38 µM (inactive).

For `COC(=O)C1=C(C)NC(=S)NC1c1ccc(OC(=O)c2ccco2)cc1` (stereo unspecified), the AC50 was > 38 µM (inactive).

With `COC(=O)Cc1c(C)[nH]n(-c2cc(Cl)cc(Cl)c2)c1=O`, the AC50 was > 38 µM (inactive).

As for `CCCCCCn1c(N2CCC(C(N)=O)CC2)nc2c1c(=O)n(C)c(=O)n2C`, the AC50 was > 38 µM (inactive).

As for `O=C1C2=C(NC(=S)NC2c2ccc(Cl)cc2)NC(c2ccc(Cl)cc2)N1c1ccc(Cl)cc1` (stereo unspecified), the AC50 was 4.62 µM.

Regarding `Cc1[nH][nH]c(=O)c1C(c1ccc([N+](=O)[O-])cc1)c1c(C)[nH][nH]c1=O`, the AC50 is 25.4 µM.

`COc1ccc(Nc2ccc(OC)cc2)cc1`: the AC50 is > 38 µM (inactive).

Consider `COc1ccc(/C=C2\SC(=S)N(CCCC(=O)Nc3ccc(O)cc3)C2=O)cc1`, for which the AC50 was > 38 µM (inactive).

In the case of `CCOC(=O)c1c(CSC(=N)N)n(-c2ccc(C)cc2)c2cc(Br)c(OC(C)=O)cc12`, the half-maximal activity concentration (AC50) is 8.36 µM.
